Experimental findings from publication PMC11267003, “Interdomain communication in a homodimeric ABC transporter” (The Journal of Biological Chemistry, 2024) are described below.

For assay [1], the target named is human coreTAPL (TAPL, ABCB9) (Homo sapiens, UniProt Q9NP78, D278A). Description: biochemical.
For assay [2], the target named is human coreTAPL (TAPL, ABCB9) (Homo sapiens, UniProt Q9NP78). Briefly: biochemical.
The target of assay [3] is human coreTAPL (TAPL, ABCB9) (Homo sapiens, UniProt Q9NP78, D292A). Briefly: biochemical.
In assay [4] the target is human coreTAPL (TAPL, ABCB9) (Homo sapiens, UniProt Q9NP78, R288A). Briefly: biochemical.
Assay [5] addresses T1, human coreTAPL R288A, C-terminal mVenus-His10 fusion (human, UniProt Q9NP78 143-766, R288A).
T1 construct: human TAPL (ABCB9), coreTAPL, amino acids 143-766; Mutant of the mVenus fusion construct; TEV site between coreTAPL and mVenus; also called R288A^mV; source: Sf21 insect cells (baculovirus), purified by Ni-NTA after solubilisation in GDN or DDM; reconstituted into liposomes for transport and hydrolysis assays; not shown: mVenus, C-terminal, kept
T1 sequence (looked up): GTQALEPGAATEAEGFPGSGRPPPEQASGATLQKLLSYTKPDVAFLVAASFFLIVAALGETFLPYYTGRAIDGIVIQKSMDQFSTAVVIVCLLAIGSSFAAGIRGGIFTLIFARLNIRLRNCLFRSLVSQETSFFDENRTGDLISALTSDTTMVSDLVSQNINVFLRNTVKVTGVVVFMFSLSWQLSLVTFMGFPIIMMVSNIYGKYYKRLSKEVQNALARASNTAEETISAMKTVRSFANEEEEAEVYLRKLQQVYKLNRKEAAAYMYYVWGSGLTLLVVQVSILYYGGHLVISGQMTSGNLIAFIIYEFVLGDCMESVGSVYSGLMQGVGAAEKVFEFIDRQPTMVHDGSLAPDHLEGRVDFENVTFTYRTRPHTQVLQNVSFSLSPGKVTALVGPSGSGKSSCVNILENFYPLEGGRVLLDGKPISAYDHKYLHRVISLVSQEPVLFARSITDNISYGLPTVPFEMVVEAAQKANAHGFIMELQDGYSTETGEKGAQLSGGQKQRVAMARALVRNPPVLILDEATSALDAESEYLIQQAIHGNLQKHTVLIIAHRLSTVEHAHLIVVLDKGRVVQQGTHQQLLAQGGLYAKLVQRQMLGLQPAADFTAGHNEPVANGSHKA
Description: MST; 5 nM C4^Atto-655 with 5 μM GDN-purified TAPL variant in GDN-containing elution buffer, 22 °C, single concentration. Particulars: both partners purified.

The target of assay [6] is T2, human coreTAPL D278A, C-terminal mVenus-His10 fusion (human, UniProt Q9NP78 143-766, D278A).
T2 construct: human TAPL (ABCB9), coreTAPL, amino acids 143-766; Mutant of the mVenus fusion construct; TEV site between coreTAPL and mVenus; also called D278A^mV; source: Sf21 insect cells (baculovirus), purified by Ni-NTA after solubilisation in GDN or DDM; reconstituted into liposomes for transport and hydrolysis assays; not shown: mVenus, C-terminal, kept
T2 sequence (looked up): T1 sequence (looked up) with D136A, A146R
The assay is described as above. Particulars: both partners purified.

For assay [7], the target named is T3, human coreTAPL wildtype (transporter associated with antigen processing-like, ABCB9), C-terminal mVenus-His10 … (human, UniProt Q9NP78 143-766).
T3 construct: human TAPL (ABCB9), coreTAPL without the N-terminal TMD0, amino acids 143-766; A tobacco etch virus cleavage site lies between coreTAPL and mVenus; no cleavage is reported for the mVenus constructs, so the His10 behind mVenus was probably still there; also called wt; wt TAPL; source: Sf21 insect cells (baculovirus), purified by Ni-NTA after solubilisation in GDN or DDM; reconstituted into …
T3 sequence (looked up): T1 sequence (looked up) with A146R
The assay is described as above. Particulars: both partners purified.

Assay [8] addresses T4, human coreTAPL D292A, C-terminal mVenus-His10 fusion (human, UniProt Q9NP78 143-766, D292A).
T4 construct: human TAPL (ABCB9), coreTAPL, amino acids 143-766; Mutant of the mVenus fusion construct; TEV site between coreTAPL and mVenus; also called D292A^mV; source: Sf21 insect cells (baculovirus), purified by Ni-NTA after solubilisation in GDN or DDM; reconstituted into liposomes for transport and hydrolysis assays; not shown: mVenus, C-terminal, kept
T4 sequence (looked up): T1 sequence (looked up) with A146R, D150A
Described as above. Particulars: both partners purified.

Positions count from the first letter of the chain named. No end group written: not given here.

Chain of human coreTAPL (TAPL, ABCB9) (Homo sapiens, UniProt Q9NP78) (Q9NP78 143-766): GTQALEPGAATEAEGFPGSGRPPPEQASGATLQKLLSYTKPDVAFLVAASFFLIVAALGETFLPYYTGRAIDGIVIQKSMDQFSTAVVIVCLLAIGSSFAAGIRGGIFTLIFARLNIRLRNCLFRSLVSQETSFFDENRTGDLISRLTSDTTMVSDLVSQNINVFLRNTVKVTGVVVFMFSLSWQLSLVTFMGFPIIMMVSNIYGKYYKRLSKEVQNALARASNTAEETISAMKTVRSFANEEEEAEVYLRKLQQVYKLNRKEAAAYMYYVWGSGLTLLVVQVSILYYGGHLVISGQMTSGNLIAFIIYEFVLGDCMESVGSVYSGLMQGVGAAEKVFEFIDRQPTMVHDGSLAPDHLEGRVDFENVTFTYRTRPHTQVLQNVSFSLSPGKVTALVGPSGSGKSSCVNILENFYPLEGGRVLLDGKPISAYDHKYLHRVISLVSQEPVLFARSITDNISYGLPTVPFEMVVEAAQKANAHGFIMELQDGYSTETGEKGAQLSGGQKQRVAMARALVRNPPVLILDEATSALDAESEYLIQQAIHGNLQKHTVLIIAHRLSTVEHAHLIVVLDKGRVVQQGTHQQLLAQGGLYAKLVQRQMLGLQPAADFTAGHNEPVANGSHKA
Chain of human coreTAPL (TAPL, ABCB9) (Homo sapiens, UniProt Q9NP78, D278A) (Q9NP78 143-766 D278A): as the sequence (Q9NP78 143-766) above, with D136A counted along it
Chain of human coreTAPL (TAPL, ABCB9) (Homo sapiens, UniProt Q9NP78, D292A) (Q9NP78 143-766 D292A): as the sequence (Q9NP78 143-766) above, with D150A counted along it

As a reminder, the IC50 is the concentration that gives 50% inhibition. For the molecule `Nc1ncnc2c1ncn2[C@@H]1O[C@H](COP(=O)(O)OP(=O)(O)OP(=O)(O)O)[C@@H](O)[C@H]1O` [ATP], the concentration for half-maximal inhibition (IC50) in assay [1] is 900 ± 200 nM; in assay [2], 1900 ± 1300 nM; in assay [3] it was 1300 ± 800 nM; in assay [4], 5600 ± 1700 nM.

B1: peptide C4^Atto-655 (RRYC^Atto-655KSTEL) (peptide)
peptide: RRYC(Atto‑655)KSTEL
notes: synthetic 9-mer peptide C4; source: synthetic peptide (Fmoc solid-phase synthesis), labelled, purified by reversed-phase HPLC
B1: the binding result in assay [5], in assay [6], in assay [7] and in assay [8] was “binds” throughout.
